Read-outs that look alike come from different tables or passages of the source.
Assays:
KP1009 CTX-M-15 = assay: Aztreonam potentiation (MPC@4), strain KP1009 CTX-M-15; conditions: minimum BLI concentration inhibiting growth with aztreonam 4 μg/mL; tested up to 40 μg/mL
[1] = target: purified class A, C and D enzymes (β-lactamases) (Klebsiella pneumoniae, UniProt Q9F663); assay: biochemical; assay type: biochemical; conditions: purified KPC-2; nitrocefin (NCF) as reporter substrate
[2] = target: T1, purified class A, C and D enzymes (β-lactamases) (Acinetobacter baumannii, UniProt Q9L4P2); assay: biochemical; assay type: biochemical; conditions: purified OXA-23; nitrocefin (NCF) as reporter substrate
T1 construct: rows headed: Ki (OXA-23, NCF), uM; other: purified OXA-23; nitrocefin (NCF) as reporter substrate
T1 sequence (Q9L4P2 whole entry): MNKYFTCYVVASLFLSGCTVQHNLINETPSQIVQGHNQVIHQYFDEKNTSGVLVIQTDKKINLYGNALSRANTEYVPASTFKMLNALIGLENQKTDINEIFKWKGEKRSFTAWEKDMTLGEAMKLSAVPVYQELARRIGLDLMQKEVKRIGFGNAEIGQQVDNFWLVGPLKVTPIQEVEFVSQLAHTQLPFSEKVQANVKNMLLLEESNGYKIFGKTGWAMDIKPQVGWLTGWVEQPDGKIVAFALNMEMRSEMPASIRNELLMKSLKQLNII

[3] = target: purified class A, C and D enzymes (β-lactamases) (Enterobacter cloacae, UniProt P05364); assay: biochemical; assay type: biochemical
purified class A, C and D enzymes (β-lactamases) (Enterobacter cloacae, UniProt P05364), sequence (P05364 21-381): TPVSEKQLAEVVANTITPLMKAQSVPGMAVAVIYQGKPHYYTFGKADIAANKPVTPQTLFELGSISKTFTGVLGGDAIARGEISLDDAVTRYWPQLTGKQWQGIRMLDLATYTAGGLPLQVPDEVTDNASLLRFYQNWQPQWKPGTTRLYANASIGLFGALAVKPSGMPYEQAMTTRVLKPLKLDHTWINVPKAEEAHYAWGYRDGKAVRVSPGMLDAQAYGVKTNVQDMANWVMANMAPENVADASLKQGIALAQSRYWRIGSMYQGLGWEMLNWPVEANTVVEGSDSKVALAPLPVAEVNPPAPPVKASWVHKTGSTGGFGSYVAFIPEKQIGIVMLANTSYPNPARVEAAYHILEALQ

[4] = target: T2, purified class A, C and D enzymes (β-lactamases) (Pseudomonas aeruginosa, UniProt P24735); assay: biochemical; assay type: biochemical
T2 construct: rows headed: Ki (Pa-AmpC, NCF), uM; other: purified Pa-AmpC; nitrocefin (NCF) as reporter substrate
T2 sequence (P24735 whole entry): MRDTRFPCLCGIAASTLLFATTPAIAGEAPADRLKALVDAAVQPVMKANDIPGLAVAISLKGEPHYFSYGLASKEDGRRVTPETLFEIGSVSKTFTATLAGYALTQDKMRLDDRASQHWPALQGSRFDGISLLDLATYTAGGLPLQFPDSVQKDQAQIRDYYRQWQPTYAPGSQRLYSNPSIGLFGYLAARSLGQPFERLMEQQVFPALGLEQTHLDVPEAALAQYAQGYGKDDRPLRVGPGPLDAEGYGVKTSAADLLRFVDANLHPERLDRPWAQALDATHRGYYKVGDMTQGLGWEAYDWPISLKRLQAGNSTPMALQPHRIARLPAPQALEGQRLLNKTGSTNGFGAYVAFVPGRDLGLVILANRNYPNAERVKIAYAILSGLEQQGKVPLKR

[5] = target: purified class A, C and D enzymes (β-lactamases) (Escherichia coli, UniProt Q9L5C7); assay: biochemical; assay type: biochemical; conditions: purified CTX-M-14; nitrocefin (NCF) as reporter substrate
purified class A, C and D enzymes (β-lactamases) (Escherichia coli, UniProt Q9L5C7), sequence (Q9L5C7 entry or part of it): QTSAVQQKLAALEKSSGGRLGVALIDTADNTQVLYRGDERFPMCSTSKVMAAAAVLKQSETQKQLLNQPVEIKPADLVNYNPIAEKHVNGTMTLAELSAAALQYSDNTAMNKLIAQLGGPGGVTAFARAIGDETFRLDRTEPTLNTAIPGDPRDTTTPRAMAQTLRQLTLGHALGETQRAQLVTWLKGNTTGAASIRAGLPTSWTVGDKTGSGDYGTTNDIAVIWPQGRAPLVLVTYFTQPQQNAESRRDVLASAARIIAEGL

[6] = target: purified class A, C and D enzymes (β-lactamases) (Klebsiella pneumoniae, UniProt Q6XEC0); assay: biochemical; assay type: biochemical; conditions: purified OXA-48; nitrocefin (NCF) as reporter substrate
ec302 TEM-10 = assay: Aztreonam potentiation (MPC@4), strain ec302 TEM-10; conditions: minimum BLI concentration inhibiting growth with aztreonam 4 μg/mL; tested up to 40 μg/mL
ECL1002 = assay: Aztreonam potentiation (MPC@4), strain ECL1002; conditions: minimum BLI concentration inhibiting growth with aztreonam 4 μg/mL; tested up to 40 μg/mL
ec308 SHV-5 = assay: Aztreonam potentiation (MPC@4), strain ec308 SHV-5; conditions: minimum BLI concentration inhibiting growth with aztreonam 4 μg/mL; tested up to 40 μg/mL
KP1005 CTX-M-14 = assay: Tigemonam potentiation (MPC@4), strain KP1005 CTX-M-14; conditions: minimum BLI concentration inhibiting growth with tigemonam 4 μg/mL; tested up to 40 μg/mL
EC1010 CMY-6 = assay: Aztreonam potentiation (MPC@4), strain EC1010 CMY-6; conditions: minimum BLI concentration inhibiting growth with aztreonam 4 μg/mL; tested up to 40 μg/mL
KP1004 KPC-2 [7] = assay: Biapenem potentiation (MPC@1), strain KP1004 KPC-2; assay type: cell-based; conditions: minimum BLI concentration inhibiting growth with biapenem 1 μg/mL; tested up to 40 μg/mL
Method: (§1) Biapenem was present in the test medium at 1 μg/mL. […] Table 3 summarizes the BLI potency of biapenem potentiation (MPC@1) for two strains overexpressing class A (KPC) and class D (OXA-48) carbapenemases. Biapenem MIC for each strain is also shown.

AB1053 OXA-72 = assay: Meropenem potentiation (MPC@8), strain AB1053 OXA-72; assay type: cell-based, Acinetobacter baumannii; conditions: minimum BLI concentration inhibiting growth with meropenem 8 μg/mL; tested up to 20 μg/mL
KP1004 KPC-2 [8] = assay: Aztreonam potentiation (MPC@4), strain KP1004 KPC-2; conditions: minimum BLI concentration inhibiting growth with aztreonam 4 μg/mL; tested up to 40 μg/mL
KP1010 SHV-12 = assay: Aztreonam potentiation (MPC@4), strain KP1010 SHV-12; conditions: minimum BLI concentration inhibiting growth with aztreonam 4 μg/mL; tested up to 40 μg/mL
KP1086 OXA-48 = assay: Biapenem potentiation (MPC@1), strain KP1086 OXA-48; assay type: cell-based; conditions: minimum BLI concentration inhibiting growth with biapenem 1 μg/mL; tested up to 40 μg/mL
Method: as §1

AB1054 OXA-23 = assay: Meropenem potentiation (MPC@8), strain AB1054 OXA-23; assay type: cell-based, Acinetobacter baumannii; conditions: minimum BLI concentration inhibiting growth with meropenem 8 μg/mL; tested up to 20 μg/mL
[9] = purified P99, nitrocefin (NCF) as reporter substrate
[10] = purified Pa-AmpC, nitrocefin (NCF) as reporter substrate, read-out: Ki (Pa-AmpC, NCF)

Structure (SMILES)	AZT MPC4 CTX-M-15 KP1009 (KP1009 CTX-M-15)	Ki (KPC-2, NCF), uM [1]	Ki [2]	Ki (P99, NCF), uM [3]	Ki [4]	Ki (CTX-M-14, NCF), uM [5]	Ki (OXA-48, NCF), uM [6]	AZT MPC4 TEM-10 ec302 (ec302 TEM-10)	AZT MPC4 ECL1002 (ECL1002)	AZT MPC4 SHV-5 ec308 (ec308 SHV-5)	TIG MPC4 CTX-M-14 KP1005 (KP1005 CTX-M-14)	AZT MPC4 CMY-6 EC1010 (EC1010 CMY-6)	BPM MPC1 KP1004 KPC-2 (KP1004 KPC-2 [7])	MPM MPC8 AB1053 OXA-72 (AB1053 OXA-72)	AZT MPC4 KPC-2 KP1004 (KP1004 KPC-2 [8])	AZT MPC4 SHV-12 KP1010 (KP1010 SHV-12)	BPM MPC1 OXA-48 KP1086 (KP1086 OXA-48)	MPM MPC8 AB1054 OXA-23 (AB1054 OXA-23)	Ki (P99, NCF), uM [3, 9]	Ki [4, 10]
O=C([O-])c1c(OCCN2CCOCC2)ccc2c1O[B-](O)(O)CC2.[Na+].[Na+] [Compound 27, Disodium; 4,4-dihydroxy-8-(2-morpholinoethoxy)-5-oxa-4-boranuidabicyclo[4.4.0]deca-1(6),7,9-triene-7-carboxylate]	Y (Y = 5 μg/mL < MPC@4 ≤ 20 μg/mL)	X (X = Ki ≤ 0.1 μM)	< 100 nM	X (key: X = Ki ≤ 0.1 μM; Y = 0.1 μM < Ki ≤ 1 μM; Z = Ki > 1 μM)	100 to 1000 nM	X (X = Ki ≤ 0.1 μM)	X (X = Ki ≤ 0.1 μM)	Y (Y = 5 μg/mL < MPC@4 ≤ 20 μg/mL)	X (X = MPC@4 ≤ 5 μg/mL)	Y (Y = 5 μg/mL < MPC@4 ≤ 20 μg/mL)	Z (Z = MPC@4 > 20 μg/mL)	X (X = MPC@4 ≤ 5 μg/mL)	X (X = MPC@1 ≤ 5 μg/mL)	Y (Y = 5 μg/mL < MPC@1 ≤ 20 μg/mL)	X (X = MPC@4 ≤ 5 μg/mL)	X (X = MPC@4 ≤ 5 μg/mL)	Y (Y = 5 μg/mL < MPC@1 ≤ 20 μg/mL)	Y (Y = 5 μg/mL < MPC@1 ≤ 20 μg/mL)	–	–
O=C([O-])c1c(OCc2ccncc2)ccc2c1O[B-](O)(O)CC2.[Na+].[Na+] [Compound 28, Disodium; 4,4-dihydroxy-8-(4-pyridylmethoxy)-5-oxa-4-boranuidabicyclo[4.4.0]deca-1(6),7,9-triene-7-carboxylate]	Y (Y = 5 μg/mL < MPC@4 ≤ 20 μg/mL)	X (X = Ki ≤ 0.1 μM)	< 100 nM	X (key: X = Ki ≤ 0.1 μM; Y = 0.1 μM < Ki ≤ 1 μM; Z = Ki > 1 μM)	< 100 nM	X (X = Ki ≤ 0.1 μM)	X (X = Ki ≤ 0.1 μM)	X (X = MPC@4 ≤ 5 μg/mL)	Y (Y = 5 μg/mL < MPC@4 ≤ 20 μg/mL)	Y (Y = 5 μg/mL < MPC@4 ≤ 20 μg/mL)	Z (Z = MPC@4 > 20 μg/mL)	X (X = MPC@4 ≤ 5 μg/mL)	X (X = MPC@1 ≤ 5 μg/mL)	X (X = MPC@1 ≤ 5 μg/mL)	X (X = MPC@4 ≤ 5 μg/mL)	X (X = MPC@4 ≤ 5 μg/mL)	X (X = MPC@1 ≤ 5 μg/mL)	X (X = MPC@1 ≤ 5 μg/mL)	–	–
O=C([O-])c1c(OCC(F)F)ccc2c1O[B-](O)(O)CC2.[Na+].[Na+] [Compound 29, Disodium; 8-(2,2-difluoroethoxy)-4,4-dihydroxy-5-oxa-4-boranuidabicyclo[4.4.0]deca-1(6),7,9-triene-7-carboxylate]	Y (Y = 5 μg/mL < MPC@4 ≤ 20 μg/mL)	X (X = Ki ≤ 0.1 μM)	< 100 nM	X (key: X = Ki ≤ 0.1 μM; Y = 0.1 μM < Ki ≤ 1 μM; Z = Ki > 1 μM)	< 100 nM	X (X = Ki ≤ 0.1 μM)	X (X = Ki ≤ 0.1 μM)	Y (Y = 5 μg/mL < MPC@4 ≤ 20 μg/mL)	X (X = MPC@4 ≤ 5 μg/mL)	X (X = MPC@4 ≤ 5 μg/mL)	Y (Y = 5 μg/mL < MPC@4 ≤ 20 μg/mL)	X (X = MPC@4 ≤ 5 μg/mL)	X (X = MPC@1 ≤ 5 μg/mL)	X (X = MPC@1 ≤ 5 μg/mL)	X (X = MPC@4 ≤ 5 μg/mL)	X (X = MPC@4 ≤ 5 μg/mL)	X (X = MPC@1 ≤ 5 μg/mL)	Y (Y = 5 μg/mL < MPC@1 ≤ 20 μg/mL)	–	–
COc1ccc2c(c1P(=O)(O)O)OB(O)CC2 [Compound 33, (2-Hydroxy-7-methoxy-3,4-dihydro-1,2-benzoxaborinin-8-yl)phosphonic acid]	Z (Z = MPC@4 > 20 μg/mL)	Z (Z = Ki > 1 μM)	< 100 nM	–	–	X (X = Ki ≤ 0.1 μM)	X (X = Ki ≤ 0.1 μM)	Z (Z = MPC@4 > 20 μg/mL)	Z (Z = MPC@4 > 20 μg/mL)	Z (Z = MPC@4 > 20 μg/mL)	Z (Z = MPC@4 > 20 μg/mL)	Y (Y = 5 μg/mL < MPC@4 ≤ 20 μg/mL)	X (X = MPC@1 ≤ 5 μg/mL)	Y (Y = 5 μg/mL < MPC@1 ≤ 20 μg/mL)	Z (Z = MPC@4 > 20 μg/mL)	Z (Z = MPC@4 > 20 μg/mL)	X (X = MPC@1 ≤ 5 μg/mL)	Y (Y = 5 μg/mL < MPC@1 ≤ 20 μg/mL)	Y (Y = 0.1 μM < Ki ≤ 1 μM)	> 1000 nM
COc1c(F)cc2c(c1C(=O)O)OB(O)CC2 [Compound 34, 6-Fluoro-2-hydroxy-7-methoxy-3,4-dihydro-1,2-benzoxaborinine-8-carboxylic acid]	X (X = MPC@4 ≤ 5 μg/mL)	X (X = Ki ≤ 0.1 μM)	< 100 nM	–	–	X (X = Ki ≤ 0.1 μM)	X (X = Ki ≤ 0.1 μM)	X (X = MPC@4 ≤ 5 μg/mL)	X (X = MPC@4 ≤ 5 μg/mL)	X (X = MPC@4 ≤ 5 μg/mL)	Z (Z = MPC@4 > 20 μg/mL)	X (X = MPC@4 ≤ 5 μg/mL)	X (X = MPC@1 ≤ 5 μg/mL)	X (X = MPC@1 ≤ 5 μg/mL)	X (X = MPC@4 ≤ 5 μg/mL)	X (X = MPC@4 ≤ 5 μg/mL)	X (X = MPC@1 ≤ 5 μg/mL)	X (X = MPC@1 ≤ 5 μg/mL)	X (X = Ki ≤ 0.1 μM)	< 100 nM
O=C(O)c1c(F)c(F)cc2c1OB(O)CC2 [Compound 35, 6,7-Difluoro-2-hydroxy-3,4-dihydro-1,2-benzoxaborinine-8-carboxylic acid]	X (X = MPC@4 ≤ 5 μg/mL)	X (X = Ki ≤ 0.1 μM)	< 100 nM	–	–	X (X = Ki ≤ 0.1 μM)	X (X = Ki ≤ 0.1 μM)	X (X = MPC@4 ≤ 5 μg/mL)	X (X = MPC@4 ≤ 5 μg/mL)	X (X = MPC@4 ≤ 5 μg/mL)	Y (Y = 5 μg/mL < MPC@4 ≤ 20 μg/mL)	X (X = MPC@4 ≤ 5 μg/mL)	X (X = MPC@1 ≤ 5 μg/mL)	X (X = MPC@1 ≤ 5 μg/mL)	X (X = MPC@4 ≤ 5 μg/mL)	X (X = MPC@4 ≤ 5 μg/mL)	X (X = MPC@1 ≤ 5 μg/mL)	X (X = MPC@1 ≤ 5 μg/mL)	X (X = Ki ≤ 0.1 μM)	< 100 nM

Reference: patent US10618918B2, “Substituted boronic acids as antimicrobials” (priority 2015, dated 2020)
